Results published in patent US9879303B2, “Chromogenic glucuronidase substrates and uses” (Glycosynth Limited, priority 2013, dated 2018).
Counter-ions that a name gives are not always drawn.

Test system: E. coli clinical isolates
Assay: screen of strains in broth medium containing FAC
Type: cell-based
Design: key to colour: Red, Green, Black or Purple mean strong colour; Red, Green, Black or Purple mean strong colour; Red, Green, Black or Purple mean strong colour; Red, Green, Black or Purple mean strong colour; +/− means less colour than strong; Tr means a trace of colour, less than +/−; — means no colour
Settings: for colour: 37° C. 18 hours
Excerpt: In order to obtain a fuller picture of the sensitivity of the substrates, they were screened with 100 different clinical isolates of E. coli in a liquid medium containing FAC. The isolates were chosen at random from the Microbiology Department, Freeman Hospital, Newcastle Upon Tyne, UK. The effectiveness of the new substrates was compared with three other media which all contained indoxyl-β-D-glucuronides. One was a commercial medium, CPS ID 3 (bioMérieux SA, Lyon, France). […] This medium was employed as a control. Among the β-D-glucuronidase producing strains of E. coli there is a large variation in the quantity of the enzyme produced and it is almost certain that the CPS ID 3 medium has been rigorously optimised to allow good growth of all the target organisms and maximum expression of the target enzymes. Therefore, two indoxyl glucuronides, X-β-D-glucuronide CHA salt and Rose-β-D-glucuronide CHA salt were also tested in a simple agar medium to allow a direct comparison of the sensitivity of these Indoxyl glucuronides when used in a medium that has not been optimised for the growth of the target organism. The comparison of the results for Rose-β-D-glucuronide and the CPS ID 3 medium was of particular significance as the commercial medium also uses Rose-β-D-glucuronide for the detection of E. coli. For consistency, the four glucuronides were all chosen as their CHA salts. As already stated, it is not anticipated that the salt form is critical to their performance. Currently. X-β-D-glucuronide is often used as either the CHA salt or the sodium salt. Brenner and colleagues [K. P. Brenner et al, Appl. Environ. Microbiol., 59, 3534-3544, (1993)] found no difference in the performance of the CHA and sodium salt forms with their application using indoxyl-β-D-glucuronide, neither in respect of colour development nor in the recovery of E. coli.
The two indoxyl glucuronides used produce insoluble endpoints following hydrolysis, as does the CPS ID 3 medium. It was therefore necessary to test these two substrates on agar plates. In contrast, catechol-β-D-glucuronide (1) and DHN-β-D-glucuronide (2b) give much more soluble endpoints best suited to liquid media and were therefore tested in a broth medium. Each broth was prepared using proteose peptone (Oxoid, Basingstoke, UK) (2 g), NaCl (1 g) and FAC (100 mg) in DI water (180 mL). This mixture was autoclaved and cooled to room temperature before being dispensed into bijoux (100×1.8 mL). Catechol β-D-glucuronide CHA salt (1) or DHN-β-D-glucuronide CHA salt (2b) (60 mg) were each dissolved in water (20 mL) and filtered to sterilize before being aseptically dispensed into successive bijoux (0.2 mL) containing the broth solution. The broth/substrate solutions were then inoculated with bacterial suspensions made up to 0.5 McFarland standard (2 μL per bijoux). X-β-D-glucuronide CHA salt (Glycosynth Ltd, Warrington, UK) (10 mg) was dissolved in NMP (200 μL). Rose-β-D-glucuronide CHA salt (Glycosynth Ltd, Warrington, UK) (20 mg) was dissolved in NMP (200 μL). These solutions were then added to Columbia agar (Oxoid, Basingstoke, UK) (100 mL) and inoculated with bacterial suspensions made up to 0.5 McFarland standard (1 μL). The plates and broths were incubated at 37° C. for 18 hours in air.

[1] = 100 E. coli strains after 18 h incubation, broth

Which results are given for `O=C(O)C1OC(Oc2ccccc2O)C(O)C(O)C1O` [Compound 1, Catechol β-D-Glucuronide CHA Salt]?
% Sensitivity [1]: 83%; Negative strains [1]: 17; Positive strains [1]: 83; colour (E. coli 260262P, broth): Black; colour (E. coli 260280Z, broth): Black; colour (E. coli 260310H, broth): Black; colour (E. coli 260313A, broth): —; colour (E. coli 260316T, broth): —; colour (E. coli 260327V, broth): Black; colour (E. coli 260330Y, broth): Black; colour (E. coli 260333P, broth): —; colour (E. coli 260345F, broth): Black; colour (E. coli 260348K, broth): Black; colour (E. coli 260354W, broth): Black; colour (E. coli 260364H, broth): Black; colour (E. coli 260370C, broth): Black; colour (E. coli 260375E, broth): Black; colour (E. coli 260390B, broth): —; colour (E. coli 260396Z, broth): Black; colour (E. coli 260398Q, broth): Black; colour (E. coli 260400N, broth): —; colour (E. coli 260401Q, broth): Black; colour (E. coli 260402H, broth): Black; colour (E. coli 260404W, broth): Black; colour (E. coli 260405P, broth): Black; colour (E. coli 260406A, broth): —; colour (E. coli 260406Y, broth): Black; colour (E. coli 260407F, broth): Black; colour (E. coli 260408C, broth): Black; colour (E. coli 260411Z, broth): Black; colour (E. coli 260412Q, broth): Black; colour (E. coli 260414H, broth): Black; colour (E. coli 260415Y, broth): Black; colour (E. coli 260416W, broth): Black; colour (E. coli 260417P, broth): Black; colour (E. coli 260422Y, broth): Black; colour (E. coli 260424P, broth): Black; colour (E. coli 260425A, broth): Black; colour (E. coli 260426F, broth): Black; colour (E. coli 260428T, broth): Black; colour (E. coli 260431N, broth): Black; colour (E. coli 260432E, broth): Black; colour (E. coli 260433H, broth): Black; colour (E. coli 260434Y, broth): Black; colour (E. coli 260435W, broth): Black; colour (E. coli 260436P, broth): Black; colour (E. coli 260437A, broth): —; colour (E. coli 260438F, broth): Black; colour (E. coli 260439C, broth): Black; colour (E. coli 260440S, broth): Black; colour (E. coli 260441G, broth): Black; colour (E. coli 260458Y, broth): Black; colour (E. coli 260459W, broth): Black; colour (E. coli 260463D, broth): Black; colour (E. coli 260464G, broth): Black; colour (E. coli 260471B, broth): —; colour (E. coli 260478N, broth): —; colour (E. coli 260479Q, broth): Black; colour (E. coli 260480M, broth): Black; colour (E. coli 260481J, broth): Black; colour (E. coli 260483R, broth): —; colour (E. coli 260485D, broth): Black; colour (E. coli 260486L, broth): Black; colour (E. coli 260492J, broth): Black; colour (E. coli 260494B, broth): Black; colour (E. coli 260495R, broth): Black; colour (E. coli 260497D, broth): Black; colour (E. coli 260502G, broth): Black; colour (E. coli 260503Z, broth): Black; colour (E. coli 260504N, broth): Black; colour (E. coli 260505Q, broth): —; colour (E. coli 260506E, broth): Black; colour (E. coli 260508Y, broth): Black; colour (E. coli 260509W, broth): Black; colour (E. coli 260510R, broth): Black; colour (E. coli 260511X, broth): Black; colour (E. coli 260514G, broth): —; colour (E. coli 260515Z, broth): Black; colour (E. coli 260521S, broth): Black; colour (E. coli 260522Z, broth): Black; colour (E. coli 260532S, broth): Black; colour (E. coli 260533G, broth): Black; colour (E. coli 260536Q, broth): Black; colour (E. coli 260537E, broth): —; colour (E. coli 260538H, broth): —; colour (E. coli 260539Y, broth): Black; colour (E. coli 260541R, broth): Black; colour (E. coli 260545G, broth): Black; colour (E. coli 260547N, broth): Black; colour (E. coli 260548Q, broth): Black; colour (E. coli 260549E, broth): Black; colour (E. coli 260553X, broth): —; colour (E. coli 260554D, broth): Black; colour (E. coli 260555L, broth): Black; colour (E. coli 260563B, broth): Black; colour (E. coli 260564R, broth): Black; colour (E. coli 260578D, broth): —; colour (E. coli 2603121P, broth): —; colour (E. coli 2604399E, broth): Black; colour (E. coli O157 non-toxigenic, broth): —; colour of positive solutions (broth with FAC, in words): greyish-black solutions, sometimes with black flakes
